These results are taken from patent US6815398B1, “Substituted phenyluracils and their use as herbicides” (Bayer Aktiengesellschaft, priority 1999, dated 2004).

For the compound `COc1ccc(Oc2cc(-n3c(=O)cc(C(F)(F)F)[nH]c3=O)c(F)cc2C#N)cc1` [Example 1, 4-(3,6-dihydro-2,6-dioxo-4-trifluoromethyl-1(2H)-pyrimidin-1-yl)-5-fluoro-2-(4-methoxy-phenoxy)-benzonitrile], the melting point (commonly the temperature of the solid-liquid transition) was 84 °C. The result for `COc1ccc(Oc2cc(-n3c(=O)cc(C(F)(F)F)n(C)c3=O)c(F)cc2C#N)cc1` [Example 2, 4-(3,6-dihydro-2,6-dioxo-3-methyl-4-trifluoro-methyl-1(2H)-pyrimidin-1-yl)-5-fluoro-2-(4-methoxy-phenoxy)-benzonitrile] reads 62 °C.
